This assay relates to HCT116 colorectal cancer cells. The experiment in a line: Cisplatin sensitization assay (96 h cell viability MTS).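 Note: compound concentration needed to lower the Cisplatin-alone IC50 by a set fold.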 The class given is cell-based. The note with it: 96 h MTS, compound plus Cisplatin. The method in brief: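 HCT116 cells were co-treated with compound and cisplatin, each in 2-fold serial dilutions from a 10 μM top final concentration, as a full matrix. After 96 h at 37 °C, 5% CO2, viability was read by MTS following a 1 h incubation with reagent.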
Regarding `CN1CCN(C(=O)C2(C#N)CCN(c3c(F)cncc3NC(=O)c3c(N)nn4cc(F)cnc34)CC2)CC1` [I-G-25, 2-amino-N-(4-(4-cyano-4-(4-methylpiperazine-1-carbonyl)piperidin-1-yl)-5-fluoropyridin-3-yl)-6-fluoropyrazolo[1,5-a]pyrimidine-3-carboxamide], the “Cisplatin Sensitization Assay” value is “+++ (Compounds with a Cisplatin sensitization value of <0.02 μM are marked with “+++.”)”.

Consider `CN(C)CCCNC(=O)C1CCN(c2c(F)cncc2NC(=O)c2c(N)nn3cc(F)cnc23)CC1` [I-G-26, 2-amino-N-(4-(4-((3-(dimethylamino)propyl)carbamoyl)piperidin-1-yl)-5-fluoropyridin-3-yl)-6-fluoropyrazolo[1,5-a]pyrimidine-3-carboxamide], for which the “Cisplatin Sensitization Assay” value is “++ (Compounds with a Cisplatin sensitization value >0.02 μM but <0.2 μM are marked with “++.”)”.

Turning to `CC1(C)CN(C(=O)C2CCN(c3c(F)cncc3NC(=O)c3c(N)nn4cc(F)cnc34)CC2)CCN1` [I-G-27, 2-amino-N-(4-(4-(3,3-dimethylpiperazine-1-carbonyl)piperidin-1-yl)-5-fluoropyridin-3-yl)-6-fluoropyrazolo[1,5-a]pyrimidine-3-carboxamide], the “Cisplatin Sensitization Assay” value is “++ (Compounds with a Cisplatin sensitization value >0.02 μM but <0.2 μM are marked with “++.”)”.

For the compound `Nc1nn2cc(F)cnc2c1C(=O)Nc1cncc(F)c1N1CCC(C(=O)N2CCNC3(CC3)C2)CC1` [I-G-28, N-(4-(4-(4,7-diazaspiro[2.5]octane-7-carbonyl)piperidin-1-yl)-5-fluoropyridin-3-yl)-2-amino-6-fluoropyrazolo[1,5-a]pyrimidine-3-carboxamide], the “Cisplatin Sensitization Assay” value was “+++ (Compounds with a Cisplatin sensitization value of <0.02 μM are marked with “+++.”)”.

Take `CN(C)C(=O)C1CCN(c2c(F)cncc2NC(=O)c2c(N)nn3cc(F)cnc23)CC1` [I-G-29, 2-amino-N-(4-(4-(dimethylcarbamoyl)piperidin-1-yl)-5-fluoropyridin-3-yl)-6-fluoropyrazolo[1,5-a]pyrimidine-3-carboxamide]: the “Cisplatin Sensitization Assay” value is “+++ (Compounds with a Cisplatin sensitization value of <0.02 μM are marked with “+++.”)”.

With `CN(C)CCNC(=O)C1CCN(c2c(F)cncc2NC(=O)c2c(N)nn3cc(F)cnc23)CC1` [I-G-30, 2-amino-N-(4-(4-((2-(dimethylamino)ethyl)carbamoyl)piperidin-1-yl)-5-fluoropyridin-3-yl)-6-fluoropyrazolo[1,5-a]pyrimidine-3-carboxamide], the “Cisplatin Sensitization Assay” value is on record as “+++ (Compounds with a Cisplatin sensitization value of <0.02 μM are marked with “+++.”)”.

For the compound `CN(C)CCN(C)C(=O)C1CCN(c2c(F)cncc2NC(=O)c2c(N)nn3cc(F)cnc23)CC1` [I-G-31, 2-amino-N-(4-(4-((2-(dimethylamino)ethyl)(methyl)carbamoyl)piperidin-1-yl)-5-fluoropyridin-3-yl)-6-fluoropyrazolo[1,5-a]pyrimidine-3-carboxamide], the “Cisplatin Sensitization Assay” value is recorded as “+++ (Compounds with a Cisplatin sensitization value of <0.02 μM are marked with “+++.”)”.

Consider `Nc1nn2cc(F)cnc2c1C(=O)Nc1cncc(F)c1N1CCC(C(=O)N2CCN(C3COC3)CC2)CC1` [I-G-32, 2-amino-6-fluoro-N-[5-fluoro-4-[4-[4-(oxetan-3-yl)piperazine-1-carbonyl]-1-piperidyl]-3-pyridyl]pyrazolo[1,5-a]pyrimidine-3-carboxamide], for which the “Cisplatin Sensitization Assay” value is listed as “+++ (Compounds with a Cisplatin sensitization value of <0.02 μM are marked with “+++.”)”.

As to `CNC(=O)C1CCN(c2c(F)cncc2NC(=O)c2c(N)nn3cc(F)cnc23)CC1` [I-G-33, 2-amino-6-fluoro-N-(5-fluoro-4-(4-(methylcarbamoyl)piperidin-1-yl)pyridin-3-yl)pyrazolo[1,5-a]pyrimidine-3-carboxamide], the “Cisplatin Sensitization Assay” value is recorded as “+++ (Compounds with a Cisplatin sensitization value of <0.02 μM are marked with “+++.”)”.

As to `CNC1CN(C(=O)C2CCN(c3c(F)cncc3NC(=O)c3c(N)nn4cc(F)cnc34)CC2)C1` [I-G-34, 2-amino-6-fluoro-N-(5-fluoro-4-(4-(3-(methylamino)azetidine-1-carbonyl)piperidin-1-yl)pyridin-3-yl)pyrazolo[1,5-a]pyrimidine-3-carboxamide], the “Cisplatin Sensitization Assay” value is on record as “+++ (Compounds with a Cisplatin sensitization value of <0.02 μM are marked with “+++.”)”.

On to `Nc1nn2cc(F)cnc2c1C(=O)Nc1cncc(F)c1N1CCC(C(=O)N2CCN(C3CCC3)CC2)CC1` [I-G-35, 2-amino-N-(4-(4-(4-cyclobutylpiperazine-1-carbonyl)piperidin-1-yl)-5-fluoropyridin-3-yl)-6-fluoropyrazolo[1,5-a]pyrimidine-3-carboxamide], for which the “Cisplatin Sensitization Assay” value is “+++ (Compounds with a Cisplatin sensitization value of <0.02 μM are marked with “+++.”)”.

For `Nc1nn2cc(F)cnc2c1C(=O)Nc1cncc(F)c1N1CCC(C(=O)N2CCOCC2)CC1` [I-G-36, 2-amino-6-fluoro-N-(5-fluoro-4-(4-(morpholine-4-carbonyl)piperidin-1-yl)pyridin-3-yl)pyrazolo[1,5-a]pyrimidine-3-carboxamide], the “Cisplatin Sensitization Assay” value is “+++ (Compounds with a Cisplatin sensitization value of <0.02 μM are marked with “+++.”)”.

On to `Nc1nn2cc(F)cnc2c1C(=O)Nc1cncc(F)c1N1CCC(C(=O)NC2COC2)CC1` [I-G-37, 2-amino-6-fluoro-N-(5-fluoro-4-(4-(oxetan-3-ylcarbamoyl)piperidin-1-yl)pyridin-3-yl)pyrazolo[1,5-a]pyrimidine-3-carboxamide], for which the “Cisplatin Sensitization Assay” value is listed as “++ (Compounds with a Cisplatin sensitization value >0.02 μM but <0.2 μM are marked with “++.”)”.

Regarding `CN1CCN(C(=O)C2CCN(c3c(F)cncc3NC(=O)c3c(N)nn4cc(F)cnc34)CC2)CC12CC2` [I-G-38, 2-amino-6-fluoro-N-(5-fluoro-4-(4-(4-methyl-4,7-diazaspiro[2.5]octane-7-carbonyl)piperidin-1-yl)pyridin-3-yl)pyrazolo[1,5-a]pyrimidine-3-carboxamide], the “Cisplatin Sensitization Assay” value is “+++ (Compounds with a Cisplatin sensitization value of <0.02 μM are marked with “+++.”)”.

Consider `COCCN(C)C(=O)C1CCN(c2c(F)cncc2NC(=O)c2c(N)nn3cc(F)cnc23)CC1` [I-G-40, 2-amino-6-fluoro-N-(5-fluoro-4-(4-((2-methoxyethyl)(methyl)carbamoyl)piperidin-1-yl)pyridin-3-yl)pyrazolo[1,5-a]pyrimidine-3-carboxamide], for which the “Cisplatin Sensitization Assay” value is reported as “+++ (Compounds with a Cisplatin sensitization value of <0.02 μM are marked with “+++.”)”.

`Nc1nn2cc(F)cnc2c1C(=O)Nc1cncc(F)c1N1CCC(C(=O)N2CC(O)C2)CC1` [I-G-41, 2-amino-6-fluoro-N-(5-fluoro-4-(4-(3-hydroxyazetidine-1-carbonyl)piperidin-1-yl)pyridin-3-yl)pyrazolo[1,5-a]pyrimidine-3-carboxamide]: the “Cisplatin Sensitization Assay” value is “+++ (Compounds with a Cisplatin sensitization value of <0.02 μM are marked with “+++.”)”.

Turning to `Nc1nn2cc(F)cnc2c1C(=O)Nc1cncc(F)c1N1CCC(C(=O)NCCN2CCC2)CC1` [I-G-42, 2-amino-N-(4-(4-((2-(azetidin-1-yl)ethyl)carbamoyl)piperidin-1-yl)-5-fluoropyridin-3-yl)-6-fluoropyrazolo[1,5-a]pyrimidine-3-carboxamide], the “Cisplatin Sensitization Assay” value was “+++ (Compounds with a Cisplatin sensitization value of <0.02 μM are marked with “+++.”)”.

Take `Nc1nn2cc(F)cnc2c1C(=O)Nc1cncc(F)c1N1CCC(C(=O)N2CC(N3CCCC3)C2)CC1` [I-G-43, 2-amino-6-fluoro-N-(5-fluoro-4-(4-(3-(pyrrolidin-1-yl)azetidine-1-carbonyl)piperidin-1-yl)pyridin-3-yl)pyrazolo[1,5-a]pyrimidine-3-carboxamide]: the “Cisplatin Sensitization Assay” value is listed as “+++ (Compounds with a Cisplatin sensitization value of <0.02 μM are marked with “+++.”)”.

Regarding `Nc1nn2cc(F)cnc2c1C(=O)Nc1cncc(F)c1N1CCC(C(=O)N2CC3CCC(C2)N3)CC1` [I-G-44, N-(4-(4-(3,8-diazabicyclo[3.2.1]octane-3-carbonyl)piperidin-1-yl)-5-fluoropyridin-3-yl)-2-amino-6-fluoropyrazolo[1,5-a]pyrimidine-3-carboxamide], the “Cisplatin Sensitization Assay” value was “+++ (Compounds with a Cisplatin sensitization value of <0.02 μM are marked with “+++.”)”.

`C[C@@H]1CN(C(=O)C2CCN(c3c(F)cncc3NC(=O)c3c(N)nn4cc(F)cnc34)CC2)CCN1` [I-G-45, (R)-2-amino-6-fluoro-N-(5-fluoro-4-(4-(3-methylpiperazine-1-carbonyl)piperidin-1-yl)pyridin-3-yl)pyrazolo[1,5-a]pyrimidine-3-carboxamide]: the “Cisplatin Sensitization Assay” value is on record as “+++ (Compounds with a Cisplatin sensitization value of <0.02 μM are marked with “+++.”)”.

In the case of `Nc1nn2cc(F)cnc2c1C(=O)Nc1cncc(F)c1N1CCC(C(=O)N2CCN3CCC2C3)CC1` (centres unmarked) [I-G-46, N-(4-(4-(1,4-diazabicyclo[3.2.1]octane-4-carbonyl)piperidin-1-yl)-5-fluoropyridin-3-yl)-2-amino-6-fluoropyrazolo[1,5-a]pyrimidine-3-carboxamide], the “Cisplatin Sensitization Assay” value is “+++ (Compounds with a Cisplatin sensitization value of <0.02 μM are marked with “+++.”)”.

In the case of `C[C@H]1CN(C(=O)C2CCN(c3c(F)cncc3NC(=O)c3c(N)nn4cc(F)cnc34)CC2)CCN1C` [I-G-47, (S)-2-amino-N-(4-(4-(3,4-dimethylpiperazine-1-carbonyl)piperidin-1-yl)-5-fluoropyridin-3-yl)-6-fluoropyrazolo[1,5-a]pyrimidine-3-carboxamide], the “Cisplatin Sensitization Assay” value is listed as “+++ (Compounds with a Cisplatin sensitization value of <0.02 μM are marked with “+++.”)”.

For the compound `Nc1nn2cc(F)cnc2c1C(=O)Nc1cncc(Cl)c1N1CCC(C(=O)N2CCNCC2)CC1` [I-G-48, 2-amino-N-(5-chloro-4-(4-(piperazine-1-carbonyl)piperidin-1-yl)pyridin-3-yl)-6-fluoropyrazolo[1,5-a]pyrimidine-3-carboxamide], the “Cisplatin Sensitization Assay” value is “+++ (Compounds with a Cisplatin sensitization value of <0.02 μM are marked with “+++.”)”.

The values are drawn from patent publication US10787452B2 (Vertex Pharmaceuticals Incorporated, priority 2012, dated 2020).
